The target of this test is ALK2 (Homo sapiens (Human), UniProt Q04771). As to the kind of experiment: ALK2 inhibition, LanthaScreen Eu Kinase Binding Assay (ThermoFisher Scientific / Life Technologies). The settings on record: read-out: Measured Ki (IC50) Value for Compounds: IC50. The protocol: Biochemical assays to measure the inhibitory effects of the compounds were performed by ThermoFisher Scientific (Life Technologies). ALK2 inhibition was tested using LanthaScreen™ Eu Kinase Binding Assay screening protocol.
ALK2, sequence (Q04771 21-509): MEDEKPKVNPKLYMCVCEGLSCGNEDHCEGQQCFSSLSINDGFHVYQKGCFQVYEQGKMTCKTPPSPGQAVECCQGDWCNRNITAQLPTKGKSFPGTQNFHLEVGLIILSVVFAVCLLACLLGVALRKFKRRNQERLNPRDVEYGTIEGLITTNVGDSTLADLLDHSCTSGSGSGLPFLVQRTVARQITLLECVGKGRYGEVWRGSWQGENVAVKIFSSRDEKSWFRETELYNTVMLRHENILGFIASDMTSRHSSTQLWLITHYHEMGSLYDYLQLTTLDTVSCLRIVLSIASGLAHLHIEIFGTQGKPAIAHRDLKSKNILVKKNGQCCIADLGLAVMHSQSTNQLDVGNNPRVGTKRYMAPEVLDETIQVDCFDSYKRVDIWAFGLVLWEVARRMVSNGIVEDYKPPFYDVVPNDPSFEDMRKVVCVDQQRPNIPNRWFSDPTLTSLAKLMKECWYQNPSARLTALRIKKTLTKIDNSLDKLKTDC

As to `COc1cc(-n2cnc(Nc3nc(N4CCC[C@@H]4CO)c4ccc(OC(C)C)cc4n3)c2)cc(OC)c1OC` [Compound 278b, (R)-(1-(7-isopropoxy-2-((1-(3,4,5-trimethoxyphenyl)-1H-imidazol-4-yl)amino)quinazolin-4-yl)pyrrolidin-2-yl)methanol], the IC50 is < 100 nM.

Take `OC[C@@H]1CCCN1c1nc(Nc2cn(-c3cccc4ncccc34)cn2)c2cccn2n1` [Compound 76c, (S)-(1-(4-((1-(quinolin-5-yl)-1H-imidazol-4-yl)amino)pyrrolo[2,1-f][1,2,4]triazin-2-yl)pyrrolidin-2-yl)methanol]: the IC50 was < 100 nM.

Regarding `COc1cc(-n2cnc(Nc3nc(N4CCC[C@H]4CO)c4ccc(C#N)cc4n3)c2)cc(OC)c1OC` [Compound 356b, (S)-4-(2-(hydroxymethyl)pyrrolidin-1-yl)-2-((1-(3,4,5-trimethoxyphenyl)-1H-imidazol-4-yl)amino)quinazoline-7-carbonitrile], the IC50 is < 100 nM.

Turning to `COc1cc(-n2cnc(Nc3cc4ccccc4c(N4CCC[C@@H]4CO)n3)c2)cc(OC)c1OC` [Compound 369b, (R)-(1-(3-(1-(3,4,5-trimethoxyphenyl)-1H-imidazol-4-ylamino)isoquinolin-1-yl)pyrrolidin-2-yl)methanol], the IC50 lay in the range of 100 to 1000 nM.

On to `COc1cc(-n2cnc(Nc3nc(N4C[C@@H]5C[C@@H]5[C@@H]4CO)c4cccn4n3)c2)cc(OC)c1OC` [Compound 324b, ((1S,2R,5R)-3-(2-((1-(3,4,5-trimethoxyphenyl)-1H-imidazol-4-yl)amino)pyrrolo[2,1-f][1,2,4]triazin-4-yl)-3-azabicyclo[3.1.0]hexan-2-yl)methanol], for which the IC50 lay within 100 to 1000 nM.

With `COc1cc(-n2cnc(Nc3nc(N4CC[C@@H](N(C)C)C4)nc4ccoc34)c2)cc(OC)c1OC` [Compound 251a, (R)-2-(3-(dimethylamino)pyrrolidin-1-yl)-N-(1-(3,4,5-trimethoxyphenyl)-1H-imidazol-4-yl)furo[3,2-d]pyrimidin-4-amine], the half-inhibitory concentration (IC50) is < 100 nM.

For the compound `COc1cc(-n2cnc(Nc3nc(N4CCC[C@H]4CO)nn4c(CN5CCCCC5)ccc34)c2)cc(OC)c1OC` [Compound 105b, (S)-(1-(7-(piperidin-1-ylmethyl)-4-((1-(3,4,5-trimethoxyphenyl)-1H-imidazol-4-yl)amino)pyrrolo[2,1-f][1,2,4]triazin-2-yl)pyrrolidin-2-yl)methanol], the 50% inhibitory concentration (IC50) was < 100 nM.

Turning to `COc1cc(-n2cnc(Nc3nc(N4CCC[C@H]4CO)nn4c(CN5CCN(C)CC5)ccc34)c2)cc(OC)c1OC` [Compound 112b, (S)-(1-(7-((4-methylpiperazin-1-yl)methyl)-4-((1-(3,4,5-trimethoxyphenyl)-1H-imidazol-4-yl)amino)pyrrolo[2,1-f][1,2,4]triazin-2-yl)pyrrolidin-2-yl)methanol], the IC50 was < 100 nM.

For `COc1cc(-c2ccc(Nc3nc(N4CCC[C@H]4C(N)=O)nc4ccccc34)nc2)cc(OC)c1OC` [Compound 371a, (S)-1-(4-((5-(3,4,5-trimethoxyphenyl)pyridin-2-yl)amino)quinazolin-2-yl)pyrrolidine-2-carboxamide], the IC50 is > 1000 nM.

Consider `COc1cc(-n2cnc(Nc3nc(N4CCC[C@H]4CO)c4c(C)n[nH]c4n3)c2)cc(OC)c1OC` [Compound 402c, (S)-(1-(3-methyl-6-((1-(3,4,5-trimethoxyphenyl)-1H-imidazol-4-yl)amino)-1H-pyrazolo[3,4-d]pyrimidin-4-yl)pyrrolidin-2-yl)methanol], for which the IC50 is < 100 nM.

On to `COc1cc(-n2cnc(Nc3nc(N4CCC[C@H]4C(N)=O)nc4cc(C)ccc34)c2)cc(OC)c1OC` [Compound 392a, (S)-1-(7-methyl-4-((1-(3,4,5-trimethoxyphenyl)-1H-imidazol-4-yl)amino)quinazolin-2-yl)pyrrolidine-2-carboxamide], for which the IC50 is < 100 nM.

On to `COc1cc(-n2cnc(Nc3nc(N(C)C4CCN(C)CC4)nc4ccoc34)c2)cc(OC)c1OC` [Compound 265a, N2-methyl-N2-(1-methylpiperidin-4-yl)-N4-(1-(3,4,5-trimethoxyphenyl)-1H-imidazol-4-yl)furo[3,2-d]pyrimidine-2,4-diamine], for which the half-inhibitory concentration (IC50) is < 100 nM.

`COc1cc(-n2cnc(Nc3nc4c(c(N5CCC[C@H]5C(N)=O)n3)CCN(Cc3ccccc3)C4)c2)cc(OC)c1OC` [Compound 166b, (S)-1-(7-benzyl-2-((1-(3,4,5-trimethoxyphenyl)-1H-imidazol-4-yl)amino)-5,6,7,8-tetrahydropyrido[3,4-d]pyrimidin-4-yl)pyrrolidine-2-carboxamide]: the half-maximal inhibitory concentration (IC50) was < 100 nM.

With `COc1cc(-n2cnc(Nc3nc(N4CCC[C@H]4C(N)=O)nc4cc(F)ccc34)c2)cc(OC)c1OC` [Compound 266c, (S)-1-(7-fluoro-4-((1-(3,4,5-trimethoxyphenyl)-1H-imidazol-4-yl)amino)quinazolin-2-yl)pyrrolidine-2-carboxamide], the IC50 is < 100 nM.

As for `COc1cc(-n2cnc(Nc3nc(N4CCC[C@H]4C(N)=O)c4ccsc4n3)c2)cc(OC)c1OC` [Compound 132b, (S)-1-(2-((1-(3,4,5-trimethoxyphenyl)-1H-imidazol-4-yl)amino)thieno[2,3-d]pyrimidin-4-yl)pyrrolidine-2-carboxamide], the IC50 is < 100 nM.

For `NC(=O)[C@@H]1CCCN1c1nc(Nc2cn(-c3ccc4c(c3)OCO4)cn2)c2ccsc2n1` [Compound 429a, (S)-1-(4-((1-(benzo[d][1,3]dioxol-5-yl)-1H-imidazol-4-yl)amino)thieno[2,3-d]pyrimidin-2-yl)pyrrolidine-2-carboxamide], the 50% inhibitory concentration (IC50) lay in the range of 100 to 1000 nM.

On to `COc1cc(-n2cnc(Nc3nc(N4CCC[C@H]4CO)c4ccc(C(=O)N5CCCCC5)n4n3)c2)cc(OC)c1OC` [Compound 259d, (S)-(4-(2-(hydroxymethyl)pyrrolidin-1-yl)-2-((1-(3,4,5-trimethoxyphenyl)-1H-imidazol-4-yl)amino)pyrrolo[2,1-f][1,2,4]triazin-7-yl)(piperidin-1-yl)methanone], for which the IC50 is < 100 nM.

With `COc1cc(-n2cnc(Nc3nc(-c4ccccc4C(N)=O)nn4cccc34)c2)cc(OC)c1OC` [Compound 135a, 2-(4-((1-(3,4,5-trimethoxyphenyl)-1H-imidazol-4-yl)amino)pyrrolo[2,1-f][1,2,4]triazin-2-yl)benzamide], the half-inhibitory concentration (IC50) was < 100 nM.

`CC(=O)c1ccc(-n2cnc(Nc3nc(N4CCC[C@H]4CO)nn4cccc34)c2)cc1` [Compound 95c, (S)-1-(4-(4-(2-(2-(hydroxymethyl)pyrrolidin-1-yl)pyrrolo[1,2-f][1,2,4]triazin-4-ylamino)-1H-imidazol-1-yl)phenyl)ethanone]: the IC50 is < 100 nM.

As to `COc1cc(-n2cnc(Nc3ccc4ccccc4n3)c2)cc(OC)c1OC` [Compound 179b, N-(1-(3,4,5-trimethoxyphenyl)-1H-imidazol-4-yl)quinolin-2-amine], the half-maximal inhibitory concentration (IC50) is < 100 nM.

Turning to `OC[C@@H]1CCCN1c1nc(Nc2cn(-c3ccc4c(c3)OCO4)cn2)c2cccn2n1` [Compound 425e, (S)-(1-(4-((1-(benzo[d][1,3]dioxol-5-yl)-1H-imidazol-4-yl)amino)pyrrolo[2,1-f][1,2,4]triazin-2-yl)pyrrolidin-2-yl)methanol], the half-inhibitory concentration (IC50) was < 100 nM.

“(R)-(1-(5-((1-(3,4,5-trimethoxyphenyl)-1H-imidazol-4-yl)amino)thiazolo[5,4-d]pyrimidin-7-yl)pyrrolidin-2-yl)methanol [Compound 323b]”: the IC50 is < 100 nM.

For `Cn1cnc(Nc2nc(N3CCC[C@H]3CO)nn3cccc23)c1` [Compound 6a, (S)-(1-(4-(1-methyl-1H-imidazol-4-ylamino)pyrrolo[1,2-f][1,2,4]triazin-2-yl)pyrrolidin-2-yl)methanol], the 50% inhibitory concentration (IC50) was 100 to 1000 nM.

As to `COc1cc(-n2cnc(Nc3nc(N4CCC[C@H]4CO)nn4c(C5=CCN(C(=O)OC(C)(C)C)CC5)ccc34)c2)cc(OC)c1OC` [Compound 98a, (S)-tert-butyl 4-(2-(2-(hydroxymethyl)pyrrolidin-1-yl)-4-(1-(3,4,5-trimethoxyphenyl)-1H-imidazol-4-ylamino)pyrrolo[1,2-f][1,2,4]triazin-7-yl)-5,6-dihydropyridine-1(2H)-carboxylate], the IC50 was < 100 nM.

Consider `COc1cc(-n2cnc(Nc3nc(N4CCC[C@H]4CO)nc4ccoc34)c2)cc(OC)c1OC` [Compound 103b, (S)-(1-(4-((1-(3,4,5-trimethoxyphenyl)-1H-imidazol-4-yl)amino)furo[3,2-d]pyrimidin-2-yl)pyrrolidin-2-yl)methanol], for which the concentration for half-maximal inhibition (IC50) is < 100 nM.

For `COc1cc(-n2cnc(Nc3nc(N4CCC[C@H]4CO)nn4c(C5=CCNCC5)ccc34)c2)cc(OC)c1OC` [Compound 107a, (S)-(1-(7-(1,2,3,6-tetrahydropyridin-4-yl)-4-(1-(3,4,5-trimethoxyphenyl)-1H-imidazol-4-ylamino)pyrrolo[1,2-f][1,2,4]triazin-2-yl)pyrrolidin-2-yl)methanol], the IC50 was < 100 nM.

Take `OC[C@@H]1CCCN1c1nc(Nc2cn(-c3ccc4c(c3)OC(F)(F)O4)cn2)c2occc2n1` [Compound 339e, (S)-(1-(4-(1-(2,2-difluorobenzo[d][1,3]dioxol-5-yl)-1H-imidazol-4-ylamino)furo[3,2-d]pyrimidin-2-yl)pyrrolidin-2-yl)methanol]: the half-inhibitory concentration (IC50) is 100 to 1000 nM.

Take `COc1cc(-n2cnc(Nc3nc(N4CCC[C@H]4CO)nc4c3ncn4C)c2)cc(OC)c1OC` [Compound 386c, (S)-(1-(9-methyl-6-((1-(3,4,5-trimethoxyphenyl)-1H-imidazol-4-yl)amino)-9H-purin-2-yl)pyrrolidin-2-yl)methanol]: the IC50 was < 100 nM.

Regarding `COc1cc(-n2cnc(Nc3nc(N4CCC[C@H]4C(N)=O)nc4ncn(C)c34)c2)cc(OC)c1OC` [Compound 390b, (S)-1-(7-methyl-6-((1-(3,4,5-trimethoxyphenyl)-1H-imidazol-4-yl)amino)-7H-purin-2-yl)pyrrolidine-2-carboxamide], the IC50 is > 1000 nM.

Turning to `COc1cc(-n2cnc(Nc3nc(N4CC[C@@H](CO)C4)nc4ccoc34)c2)cc(OC)c1OC` [Compound 246a, (R)-(1-(4-((1-(3,4,5-trimethoxyphenyl)-1H-imidazol-4-yl)amino)furo[3,2-d]pyrimidin-2-yl)pyrrolidin-3-yl)methanol], the IC50 was < 100 nM.

Usually IC50 stands for the point on the concentration scale where inhibition reaches its midpoint.

The record behind these values is patent US11661426B2, “Imidazole-containing inhibitors of ALK2 kinase” (BioCryst Pharmaceuticals, Inc., priority 2017, dated 2023).
